Source: EP3323812B1, “ARYLALKYL-AND ARYLOXYALKYL-SUBSTITUTED EPITHELIAL SODIUM CHANNEL BLOCKING COMPOUNDS” (Parion Sciences, Inc., priority 2012, dated 2014)

Key:
[1] = test system: CBE cells; test: Airway hydration: apical surface liquid retention on primary CBE cells at air-liquid interface; format: cell-based, canine; conditions: 10 µM, after 8 hours, 50 µl applied to apical surface of CBE cells
Description: Primary CBE cells are plated onto collagen-coated, porous membranes maintained at an air-liquid interface to assess maintenance of surface liquid volume over time. […] To reduce artifact due to an apical carbohydrate osmotic gradient upon water loss, glucose was not included in the apical buffer.

[2] = biological target: Muc5B (Homo sapiens, UniProt Q9HC84); conditions: in vitro; also printed as 3.26%; cited from earlier work

| Structure (SMILES) | surface liquid retained (% initial volume) [1] | concentration required to fully reduce Muc5B [2] |
| --- | --- | --- |
| N=C(N)NC(=O)c1nc(Cl)c(N)nc1N [Amiloride, amiloride] | 25±19.2% |  |
| CC(=O)N[C@@H](CS)C(=O)O [NAC, N-acetyl cysteine] |  | 200 mM |
